Patent publication US20080293820A1, “METHODS FOR IMPROVING PHYSICAL FUNCTION IN FIBROMYALGIA” (Cypress Bioscience, Inc., priority 2007, published 2008)
Structures can show the parent of a compound that is named as a salt.

Tested on: patients who meet the 1990 ACR criteria for fibromyalgia syndrome
Experiment: Example 2: multicenter, double-blind, randomized, placebo-controlled monotherapy study of milnacipran for treatment of fibromyalgia (1196 patients)
Type: in vivo, human
Parameters: Mean Change from Baseline in PFI SF-36 domain score / Mean Change from Baseline in ROLP SF-36 domain score / Mean Change from Baseline in PAIN SF-36 domain score / Mean Change from Baseline in GHP SF-36 domain score: scale not given here
Conditions: for Composite Pain: number of responders / Composite Syndrome: number of responders / PGIC Component: number of responders / Pain Component: number of responders / SF36 PCS Component: number of responders: 100 mg (399); for time-weighted average (AUC) of SF-36 PCS Scores, Difference from Placebo / time-weighted average (AUC) of SF-36 PCS Scores, LS Mean: Tx3-Tx15, ANCOVA model
Protocol: The primary outcome was a composite responder analysis assessing response rates of two doses (100 mg/day and 200 mg/day) of milnacipran as compared with placebo at Visit Tx15 (week 15).
This was a multicenter, randomized, double-blind, placebo-controlled three-arm study designed which enrolled 1196 patients who meet the 1990 ACR criteria for fibromyalgia syndrome (history of widespread pain and pain in 11 of 18 tender point sites on digital palpation), as well as the more detailed admission criteria outlined in the protocol.
Patients were randomized to receive placebo, 100 mg/day milnacipran or 200 mg/day milnacipran in a ratio of 1:1:1 (placebo=401 patients, 100 mg/day=399 patients, 200 mg/day=396 patients). The patients assigned to the two active treatment arms received a total of 12 weeks of stable-dose milnacipran exposure after the 3 weeks of dosage escalation steps, for a total of 15 weeks of drug exposure. All randomized medications (placebo and milnacipran) were administered twice a day (BID).
The primary efficacy assessment of this study was a composite responder status defined by three domains of interest evaluated at visit Tx15. The domains measured were
1) pain (measured by an electronic diary in the morning as a daily recall pain score); 2) patient global (measured by the PGIC, 1-7 scale); 3) physical function (measured by the SF-36 PCS).
The secondary efficacy parameters were time-weighted average (AUC) of the weekly average PED morning recall pain scores for Weeks 4 through 15, PGIC, and SF-36 PCS for Visit Tx3 to Visit Tx15.
The physical function domain for response analysis was measured by the Physical Component Summary of SF-36 (SF-36 PCS). The SF-36 is a brief, well-established, self-administered patient questionnaire for the assessment of health status, functional status, and quality of life. The SF-36 measures eight domains of health status: physical functioning, role limitations due to physical problems, bodily pain, general health perceptions, energy/vitality, social functioning, role limitations due to emotional problems, and mental health. An SF-36 PCS score and a mental component summary (MCS) score can be calculated by combining and weighting the various individual scales. The PCS and MCS scores have been standardized to have a mean=50, SD=10 in the general healthy US population (see, e.g., Ware, J., M. Kosinski, and J. Dewey, How to Score Version 2 of the SF-36 Health Survey (Standard & Acute Forms). 3rd ed. 2000, Lincoln, R.I.: QualityMetric).
A patient was classified as a responder for the treatment of pain of fibromyalgia if he or she reached Visit Tx15 and satisfied the following criteria: • Greater than or equal to 30% in pain reduction from baseline; • PGIC rated as “much or very much improved,” (i.e., a score of 1 or 2 on the 1-7 scale at endpoint.)
A patient was classified as a responder for the treatment of FMS if he or she satisfied the responder criteria for the treatment of pain of fibromyalgia and the following additional criterion (at visit Tx15): • Improvement on the SF-36 PCS score from baseline by an amount at least equivalent to the minimal clinically important difference, as defined in the Statistical Analysis Plan.
Table 6 summarizes 3-month results for the Baseline Observation Carried Forward (BOCF), Last Observation Carried Forward (LOCF) and study completer (OC) populations. LOCF is an analysis in which observations are carried forward to the last time point for patients who dropped out. The LOCF analysis treats the carried-forward data as observed data at the last time point. BOCF is an analysis that requires that the patient remain active in the trial to be evaluated for response. If a patient withdrew from the trial for any reason, they were classified as a non-responder irregardless of their pain and global scores at the time of withdrawal. […]

[1] = 100 mg, Visits Tx3-Tx15, LOCF, intent to treat

SMILES: CCN(CC)C(=O)C1(c2ccccc2)CC1CN (racemic) [milnacipran, Z-2-aminomethyl-1-phenyl-N,N-diethylcyclopropanecarboxamide hydrochloride]
- Composite Pain: number of responders (3-months, BOCF): 91
- Composite Syndrome: number of responders (3-months, BOCF): 58
- PGIC Component: number of responders (3-months, BOCF): 125
- Pain Component: number of responders (3-months, BOCF): 124
- SF36 PCS Component: number of responders (3-months, BOCF): 108
- Composite Pain: number of responders (3-months, LOCF): 103
- Composite Syndrome: number of responders (3-months, LOCF): 65
- PGIC Component: number of responders (3-months, LOCF): 138
- Pain Component: number of responders (3-months, LOCF): 149
- SF36 PCS Component: number of responders (3-months, LOCF): 129
- physical function in patients with fibromyalgia compared to placebo (in words) (100 mg or 200 mg): surprisingly and effectively improves physical function
- Composite Pain: responder rate (100 mg, 3-months, BOCF): (22.81%)
- Composite Pain: responder rate difference from placebo (unlabelled line) (100 mg, 3-months, BOCF): 6.35%
- Composite Syndrome: responder rate (100 mg, 3-months, BOCF): (14.54%)
- Composite Syndrome: responder rate difference from placebo (unlabelled line) (100 mg, 3-months, BOCF): 5.81%
- PGIC Component: responder rate (100 mg, 3-months, BOCF): (31.33%)
- PGIC Component: responder rate difference from placebo (unlabelled line) (100 mg, 3-months, BOCF): 8.39%
- Pain Component: responder rate (100 mg, 3-months, BOCF): (31.08%)
- Pain Component: responder rate difference from placebo (unlabelled line) (100 mg, 3-months, BOCF): 5.89%
- SF36 PCS Component: responder rate (100 mg, 3-months, BOCF): (27.07%)
- SF36 PCS Component: responder rate difference from placebo (unlabelled line) (100 mg, 3-months, BOCF): 5.62%
- Composite Pain: responder rate (100 mg, 3-months, LOCF): (25.81%)
- Composite Pain: responder rate difference from placebo (unlabelled line) (100 mg, 3-months, LOCF): 7.61%
- Composite Syndrome: responder rate (100 mg, 3-months, LOCF): (16.29%)
- Composite Syndrome: responder rate difference from placebo (unlabelled line) (100 mg, 3-months, LOCF): 6.56%
- PGIC Component: responder rate (100 mg, 3-months, LOCF): (34.59%)
- PGIC Component: responder rate difference from placebo (unlabelled line) (100 mg, 3-months, LOCF): 9.65%
- Pain Component: responder rate (100 mg, 3-months, LOCF): (37.34%)
- Pain Component: responder rate difference from placebo (unlabelled line) (100 mg, 3-months, LOCF): 8.66%
- SF36 PCS Component: responder rate (100 mg, 3-months, LOCF): (32.33%)
- SF36 PCS Component: responder rate difference from placebo (unlabelled line) (100 mg, 3-months, LOCF): 6.89%
- Composite Pain: m/n = # of responders/# of patients included (100 mg, 3-months, OC): 91/236
- Composite Pain: responder rate (100 mg, 3-months, OC): (38.56%)
- Composite Pain: responder rate difference from placebo (unlabelled line) (100 mg, 3-months, OC): 13.37%
- Composite Syndrome: m/n = # of responders/# of patients included (100 mg, 3-months, OC): 58/236
- Composite Syndrome: responder rate (100 mg, 3-months, OC): (24.58%)
- Composite Syndrome: responder rate difference from placebo (unlabelled line) (100 mg, 3-months, OC): 11.22%
- PGIC Component: m/n = # of responders/# of patients included (100 mg, 3-months, OC): 125/263
- PGIC Component: responder rate (100 mg, 3-months, OC): (47.53%)
- PGIC Component: responder rate difference from placebo (unlabelled line) (100 mg, 3-months, OC): 15.70%
- Pain Component: m/n = # of responders/# of patients included (100 mg, 3-months, OC): 124/237
- Pain Component: responder rate (100 mg, 3-months, OC): (52.32%)
- Pain Component: responder rate difference from placebo (unlabelled line) (100 mg, 3-months, OC): 13.92%
- SF36 PCS Component: m/n = # of responders/# of patients included (100 mg, 3-months, OC): 108/263
- SF36 PCS Component: responder rate (100 mg, 3-months, OC): (41.06%)
- SF36 PCS Component: responder rate difference from placebo (unlabelled line) (100 mg, 3-months, OC): 11.40%
- time-weighted average (AUC) of SF-36 PCS Scores, Difference from Placebo (100 mg, LOCF): 16.78
- time-weighted average (AUC) of SF-36 PCS Scores, LS Mean (100 mg, LOCF): 425.22
- time-weighted average (AUC) of SF-36 PCS Scores, Difference from Placebo (100 mg, OC): 20.22
- time-weighted average (AUC) of SF-36 PCS Scores, LS Mean (100 mg, OC): 437.91
- Mean Change from Baseline in GHP SF-36 domain score (100 mg, Tx 15, Observed Cohort): 6.0
- Mean Change from Baseline in PAIN SF-36 domain score (100 mg, Tx 15, Observed Cohort): 15.9
- Mean Change from Baseline in PCS Score at Tx 15 (100 mg, Tx 15, Observed Cohort): 5.0
- Mean Change from Baseline in PFI SF-36 domain score (100 mg, Tx 15, Observed Cohort): 6.8
- Mean Change from Baseline in ROLP SF-36 domain score (100 mg, Tx 15, Observed Cohort): 13.7
- time-weighted average (AUC) of SF-36 PCS Scores, Mean [1]: 423.86
- time-weighted average (AUC) of SF-36 PCS Scores, Median [1]: 418.2
- time-weighted average (AUC) of SF-36 PCS Scores, Mean (100 mg, Visits Tx3-Tx15, OC, intent to treat): 435.76
